Experiment: mn = molality of the nth substance listed, in mol/kg
Details: 101 kPa, Liquid; for electrical conductivity: Frequency=0.001 MHz, Alternating current cell with electrodes; for speed of sound: Frequency=2 MHz

CC(=O)[O-].CC(=O)[O-].[Mg+2] [magnesium acetate] + CO
Details	electrical conductivity, 273.15 K [S/m]	electrical conductivity, 278.15 K [S/m]	electrical conductivity, 283.15 K [S/m]	electrical conductivity, 288.15 K [S/m]	speed of sound, 273.15 K [m/s]	speed of sound, 278.15 K [m/s]	speed of sound, 283.15 K [m/s]	viscosity, 273.15 K [mPa·s]	viscosity, 278.15 K [mPa·s]	viscosity, 283.15 K [mPa·s]
m1 = 0.0059	0.0325	0.0329	0.0334	0.0341	1185.9	1169.1	1152.8	–	–	–
m1 = 0.0093	0.055	0.0556	0.0562	0.0566	1186.1	1169.4	1153.2	–	–	–
m1 = 0.014	–	–	–	–	–	–	–	0.821	0.7547	0.6979
m1 = 0.018	0.0621	0.0627	0.0634	0.0642	1186.2	1170	1154.7	0.8229	0.7565	0.6998
m1 = 0.0339	0.0796	0.0807	0.0818	0.0831	–	–	–	0.8417	0.7732	0.7143
m1 = 0.053	0.0922	0.0937	0.0954	–	1190.2	1172.6	1156.3	–	–	–
m1 = 0.0646	0.0965	0.0989	0.1008	–	–	–	–	0.8642	0.7927	0.7304
m1 = 0.0855	0.106	0.1084	0.1089	–	1190.1	1176.6	1156.5	–	–	–
m1 = 0.1012	–	–	–	–	–	–	–	0.9108	0.8332	0.7669
m1 = 0.1024	0.1148	0.1174	0.1198	–	1194.5	1176.8	1160.3	–	–	–
m1 = 0.13	–	–	–	–	–	–	–	0.9308	0.8509	0.7824
m1 = 0.1402	0.1289	0.1326	0.1355	–	1194.6	1177.7	1160.4	0.9493	0.867	0.7965
m1 = 0.1455	0.1307	0.135	0.1388	–	1192.6	1175	1158.5	–	–	–
m1 = 0.17	–	–	–	–	–	–	–	0.9637	0.8812	0.8105
m1 = 0.1837	0.1414	0.1448	0.1465	–	1195.3	1179.3	1161.7	–	–	–
m1 = 0.2003	–	–	–	–	–	–	–	0.9889	0.9025	0.8289
m1 = 0.2192	–	–	–	–	1196.7	1181	1162.8	–	–	–
m1 = 0.2422	0.1507	0.153	0.1656	–	1196.9	1179.9	1163.1	1.042	0.9469	0.8664
m1 = 0.2453	–	–	–	–	–	–	–	1.036	0.9437	0.8643
m1 = 0.2889	0.1565	0.1605	0.1642	–	1197.1	1180.9	1163.5	1.091	0.9892	0.8961
m1 = 0.3042	–	–	–	–	1199.6	1181.7	1165.8	–	–	–

Source: the NIST ThermoML archive (doi:10.1021/je800463k)
